Data reported in patent publication US20200397894A1, “COMPOSITIONS AND METHODS FOR TREATING CANCER” (University of Virginia Patent Foundation, priority 2016, published 2020).

How the values were obtained:
[1] = tested on: DM331 xenografts; assay: Melanoma flank xenograft in nude mice; format: in vivo; conditions: vs. vehicle; PLX4720 in rodent diet 417 mg/kg
Protocol: All animal experiments were performed after approval of animal protocols by the Animal Care and Use Committee (ACUC) of the University of Virginia. Animals were housed and handled in accordance with the guidelines of the ACUC of the University of Virginia. The effect of pevonedistat on melanoma growth was tested in flank xenograft models. Foxn1^nu (20-25 g body weight, 4-5 weeks old females) athymic nude immune-deficient mice (Harlan Laboratories, now Envigo, Indianapolis, Ind., United States of America) were used in this study. Pevonedistat was dissolved in sterile 10% DMSO containing PBS (stock 1 mM), filtered, and stored in −20° C. until use. DM93, VMM39, SLM2, DM331, or SK-MEL-24 (2×10^6) melanoma cells were implanted in both flanks of immune-deficient mice (n=12 mice per group) and tumor growth was monitored until they grow to an average volume of 150-200 mm^3, and mice were randomized into groups for treatment. Animals were administered 0.2 mL pevonedistat solution (30 or 60 mg/kg body weight as indicated) intraperitoneally on a schedule of two cycles of five-day treatment followed by five treatment-free days, for 3 weeks, or more as indicated. Control animals were treated with an equal volume of sterile vehicle (10% DMSO in PBS). Where indicated, mice received control rodent diet, or rodent diet with 417 mg/kg PLX4720 (Research Diets, Inc. New Brunswick, N.J., United States of America). Tumors were measured with an electronic caliper every other day for 3 weeks post-drug injection. Animal weight was recorded once a week to detect any weight loss due to the toxicity of drug treatment or tumor burden. At the end of the treatment, animals were euthanized and tumors harvested for further processing. The results shown are mean tumor volumes±s.e.m; *p<0.05, **p<0.01, ***p<0.001.

[2] = tested on: DM93 cells; assay: Cell cycle distribution and rereplication by propidium iodide staining and FACS; format: cell-based, human
Protocol: The effects of pevonedistat, vemurafenib, and/or silencing of various cell cycle-associated proteins by siRNA on cell cycle distribution and rereplication were assessed by propidium iodide staining and flow cytometry of asynchronous melanoma cultures. Synchronization of cells was not employed to avoid bias and to be able to measure the impact of these perturbations on proliferating cancer cells. […] Cells were washed with cold PBS, harvested, and fixed in 70% (v/v) ethanol. Cells were subsequently treated with 20 μg of DNase-free RNase and stained with propidium iodide according to instructions of the manufacturer. Samples were analyzed on a FACSCAN™ (Becton, Dickinson and Company, Franklin Lakes, N.J., United States of America) and G0-G1, S, and G2-M fractions were segmented, and apoptotic (sub-G1 DNA content) and rereplicating (>G2/M DNA content) fractions were determined using FLOWJO® (FLOWJO, LLC, Ashland, Oreg., United States of America) and ModFit (Verity Software House, Topsham, Me., United States of America) software.

[3] = tested on: DM331 and SK-MEL-24 cells from PLX4720-resistant tumors; assay: In vitro sensitivity of cells extracted ex vivo from PLX4720-resistant tumors; format: cell-based, human; conditions: DM331 and SK-MEL-24 cells extracted ex vivo
Protocol: Proliferation and viability of cultured cells was measured by CELLTITER96® Non-radioactive Cell Proliferation Assay (Promega Corporation; Madison, Wis., United States of America). Briefly, various wild type and mutant BRAF melanoma cells were seeded in 96 well plates and treated with pevonedistat, vemurafenib, or the combination pevonedistat and vemurafenib at various concentrations. Control cells were treated with DMSO. 96 hours following treatment, cells were stained with the dye solution according to the manufacturer's protocol. Absorbance was recorded at 570 nm and growth curves were established. […] Cells were counted every 24 hours using a COUNTESS™ Automated Cell Counter (INVITROGEN™, Carlsbad, Calif., United States of America), and harvested at the indicated times for PI staining and FACS analysis (cell cycle profile) or for immunoblotting.
The effects of pevonedistat, vemurafenib, and/or silencing of various cell cycle-associated proteins by siRNA on cell cycle distribution and rereplication were assessed by propidium iodide staining and flow cytometry of asynchronous melanoma cultures. […]

[4] = tested on: VMM39 cells; assay: Rereplication by propidium iodide staining and FACS; format: cell-based, human; conditions: retroviral overexpression of SET8 and/or p21 species
Protocol: The effects of pevonedistat, vemurafenib, and/or silencing of various cell cycle-associated proteins by siRNA on cell cycle distribution and rereplication were assessed by propidium iodide staining and flow cytometry of asynchronous melanoma cultures. Synchronization of cells was not employed to avoid bias and to be able to measure the impact of these perturbations on proliferating cancer cells. Briefly, asynchronous melanoma cell lines were treated with pevonedistat or vemurafenib, or transfected with si-CDT1, si-CDT2, si-SET8, si-p21, sigeminin, si-EMI1, or si-GL2 for a time ranging from 24 to 96 hours. Cells were washed with cold PBS, harvested, and fixed in 70% (v/v) ethanol. Cells were subsequently treated with 20 μg of DNase-free RNase and stained with propidium iodide according to instructions of the manufacturer. Samples were analyzed on a FACSCAN™ (Becton, Dickinson and Company, Franklin Lakes, N.J., United States of America) and G0-G1, S, and G2-M fractions were segmented, and apoptotic (sub-G1 DNA content) and rereplicating (>G2/M DNA content) fractions were determined using FLOWJO® (FLOWJO, LLC, Ashland, Oreg., United States of America) and ModFit (Verity Software House, Topsham, Me., United States of America) software.

CCCS(=O)(=O)Nc1ccc(F)c(C(=O)c2c[nH]c3ncc(Cl)cc23)c1F [PLX4720]
growth of DM331 xenografts [1]: inhibited

CCCS(=O)(=O)Nc1ccc(F)c(C(=O)c2c[nH]c3ncc(-c4ccc(Cl)cc4)cc23)c1F [vemurafenib, N-(3-(5-(4-chlorophenyl)-1H-pyrrolo[2,3-b]pyridine-3-carbonyl)-2,4-difluorophenyl)propane-1-sulfonamide]
cells undergoing pevonedistat-induced rereplication after vemurafenib pretreatment ([2]; DM93, pretreatment with vemurafenib for 24 hours, then 1 μM pevonedistat 48 hours): 16% | effect on cell cycle ([2]; DM93 cells): robust G1 growth arrest and complete depletion of S-phase cells | sensitivity in vitro of cells from PLX4720-resistant tumors [3]: remained insensitive

B1: Wild-type SET8: N-terminal FLAG-tagged Set8 protein encoded by a retrovirus (protein, UniProt Q9NQR1 1-393, looked up)
N-lysine methyltransferase …: MGEGGAAAALVAAAAAAAAAAAAVVAGQRRRRLGRRARCHGPGRAAGGKMSKPCAVEAAAAAVAATAPGPEMVERRGPGRPRTDGENVFTGQSKIYSYMSPNKCSGMRFPLQEENSVTHHEVKCQGKPLAGIYRKREEKRNAGNAVRSAMKSEEQKIKDARKGPLVPFPNQKSEAAEPPKTPPSSCDSTNAAIAKQALKKPIKGKQAPRKKAQGKTQQNRKLTDFYPVRRSSRKSKAELQSEERKRIDELIESGKEEGMKIDLIDGKGRGVIATKQFSRGDFVVEYHGDLIEITDAKKREALYAQDPSTGCYMYYFQYLSKTYCVDATRETNRLGRLINHSKCGNCQTKLHDIDGVPHLILIASRDIAAGEELLYDYGDRSKASIEAHPWLKH
modifications: N-terminal FLAG tag
notes: N-terminal FLAG-tagged Set8 protein encoded by a retrovirus
Percent Rereplication in VMM39 [4]: 4.98% | Percent Rereplication in DM93 ([2]; retroviral overexpression of SET8 and/or p21 species): 3.87%

B2: Wild-type CDT1: wild-type CDT1 ectopically expressed from retrovirus (protein, UniProt Q9H211 1-546, looked up)
DNA replication factor Cdt1: MEQRRVTDFFARRRPGPPRIAPPKLACRTPSPARPALRAPASATSGSRKRARPPAAPGRDQARPPARRRLRLSVDEVSSPSTPEAPDIPACPSPGQKIKKSTPAAGQPPHLTSAQDQDTISELASCLQRARELGARVRALKASAQDAGESCTPEAEGRPEEPCGEKAPAYQRFHALAQPGLPGLVLPYKYQVLAEMFRSMDTIVGMLHNRSETPTFAKVQRGVQDMMRRRFEECNVGQIKTVYPASYRFRQERSVPTFKDGTRRSDYQLTIEPLLEQEADGAAPQLTASRLLQRRQIFSQKLVEHVKEHHKAFLASLSPAMVVPEDQLTRWHPRFNVDEVPDIEPAALPQPPATEKLTTAQEVLARARNLISPRMEKALSQLALRSAAPSSPGSPRPALPATPPATPPAASPSALKGVSQDLLERIRAKEAQKQLAQMTRCPEQEQRLQRLERLPELARVLRSVFVSERKPALSMEVACARMVGSCCTIMSPGEMEKHLLLLSELLPDWLSLHRIRTDTYVKLDKAADLAHITARLAHQTRAEEGL
Percent Rereplication ([2]; retroviral overexpression of CDT1 species, DM93 per text): 51.4%
